Blank lines part the entries; values can stand above or below the molecule they belong to. Where a SMILES comes first, the peptide text is derived from it.
Legend:
[1] = tested on: mTOR; details: piglets; cited from earlier work
[2] = tested on: human CD4+ cells; assay: Human CD4+ lymphocyte-migration assay (modified Boyden chamber); type: cell-based
Method: A: Synthetic human-C-peptide (1-31, having ERC-binding-motif LGGGPG) was tested in human CD4+ lymphocyte-migration assay together with negative and treatment controls: no C-peptide added, scrambled version of human C-peptide (1-31, lacking any xGxxPx motif) and pig-C-peptide (1-29, ˜74% similarity to human C-peptide but lacking any xGxxPx motif; alignment with human C-peptide shown herewith).
Freshly isolated human CD4+ cells were incubated for 3 h with the indicated C-peptide variants (10 nM) to assess the effect on cell migration in a modified Boyden chamber. Results are expressed as the mean±SEM, ****P<0.001 treatments vs. control.
B: Freshly isolated human CD4 cells were preincubated for 3 h with V14 peptide (10 μM) or lactose (10 mM) and then stimulated with C-peptide (1-31) for 3 H as indicated in (A). Results are expressed as the mean±SEM. *P<0.05, ****P<0.001 treatments vs. control, […] ###P<0.001 treatments vs. human C-peptide (1-31).

[3] = tested on: LPS-activity; details: cited from earlier work
[4] = tested on: TNF-α and IL-6; details: rat, hemorrhagic shock; cited from earlier work
[5] = Distribution and elimination of intravenously injected [14C]-AQGV from mice; type: in vivo, male CD-1 mice
Method: The present study, which was conducted by TNO Biosciences, Utrechtseweg, Netherlands, was designed to provide data on the distribution and metabolism of [^14C]-AQGV (Ala-Gln-[1-^14C]Gly-Val) in male CD-1 mice following a single intravenous dose of 50 mg/kg. To this end, mice were sacrificed at 10, 30 and 60 minutes, and 6 and 24 hours after administration of radiolabeled AQGV, counts in various tissues were determined, and the radioactivity present in the urine and plasma were analyzed by HPLC.

[6] = tested on: human pulmonary microvascular endothelial cells; assay: Microvascular angiogenesis (sprouting) assay in Matrigel; type: cell-based; details: for angiogenic (core) activity in sprouting assay: human vascular endothelial cells, as demonstrated herein; for angiogenic activities (total tube length): Matrigel, increasing concentrations, t=24 h, data not shown
Method: Human pulmonary microvascular endothelial cells (Hpmec, HUVE, or other vascular EC, may also be used) were cultured in EBM-2 medium (Lonza, CC-3156) supplemented with 10% FBS and all components present in the bullet kit (Lonza, CC-4147) containing human recombinant FGF-B, human recombinant VEGF, human recombinant R3-IGF-1, ascorbic acid, human recombinant EGF and GA-1000 (Gentamicin sulfate-Amphotericin). 24 hours prior to the assay Hpmec were starved in EBM-2 medium containing 0.5% FBS instead of 10% FBS. For introduction in the angiogenesis assay, endothelial cells were washed 2 times with warm PBS, trypsinized and resuspended in serum free EBM-2 medium. For the angiogenesis assay, Matrigel (Fisher Scientific, Landsmeer, The Netherlands #11523550) was diluted 1:1 in serum-free EBM-2 medium and plated in a 96-well plate (50 μL). After polymerization, the cells were combined with the experimental peptide fragments and added on top of the Matrigel (100 μL). Pictures of the microvascular network were taken after 24 hours of incubation with a 4× objective and analysed using the plug-in angiogenesis analyser in ImageJ.

[7] = tested on: NOD mice; details: cited from earlier work
[8] = tested on: human umbilical vein endothelial cells; details: dose-dependent; cited from earlier work
[9] = tested on: streptozotocin-induced diabetic mice; details: supplement using osmotic pumps; cited from earlier work
[10] = after 10 minutes, 50 mg/kg i.v.

Molecule: C[C@H](N)C(=O)N[C@@H](CCC(N)=O)C(=O)O [AQ, Alanyl-glutamine] (H-Ala-Gln-OH)
- autophagy-inhibition [1]: demonstrated

Molecule: OC[C@H]1O[C@@H](O[C@H]2[C@H](O)[C@@H](O)C(O)O[C@@H]2CO)[C@H](O)[C@@H](O)[C@H]1O (stereo partly drawn) [lactose]
- effect on CD4+-migratory effects of C-peptide ([2]; preincubated 3 h with V14 peptide (10 μM) or lactose (10 mM), then C-peptide (1-31)): blunted

Molecule: ALPALP
- LPS-activity in vitro [3]: significantly inhibited

Molecule: AQGV
- LPS-activity in vitro [3]: significantly inhibited
- systemic release of IL-6 [4]: significantly (p<0.001) prevented
- systemic release of TNF-α [4]: significantly (p<0.001) prevented

- average total recovery of radioactivity ([5]; 10 minutes after dose administration): 83.2%
- average total recovery of radioactivity ([5]; 30 minutes after dose administration): 70.5%
- average total recovery of radioactivity ([5]; 60 minutes after dose administration): 62.9%
- average total recovery of radioactivity ([5]; 6 hours after dose administration): 52.6%
- average total recovery of radioactivity ([5]; 24 hours after dose administration): 50.8%
- administered radioactivity excreted in feces ([5]; after 24 hours): 2.6%
- administered radioactivity excreted in urine ([5]; after 24 hours): 10.2%
- removal from the blood ([5]; after intravenous injections): rapidly removed
- radioactivity in the blood, amount present if all of the counts were in intact peptide ([5]; blood, 10 minutes after single intravenous dose of 50 mg/kg): 17.2 µg/g
- concentration of "peptide" (radioactivity) in kidneys [5, 10]: 362 µg/g
- concentration of "peptide" (radioactivity) in kidneys ([5]; after 24 hours, 50 mg/kg i.v.): 61.9 µg/g
- concentration of "peptide" (radioactivity) in liver [5, 10]: 105 µg/g
- concentration of "peptide" (radioactivity) in liver ([5]; after 24 hours, 50 mg/kg i.v.): 37.6 µg/g
- concentration of "peptide" (radioactivity) in lung ([5]; lung, after 10 minutes, 50 mg/kg i.v.): 75.2 µg/g
- time to full hydrolysis of the peptide after administration ([5]; mice): 15 min
- parent compound in plasma ([5]; plasma after 10 minutes, HPLC, 50 mg/kg i.v.): No parent compound could be detected
- concentration of "peptide" (radioactivity) in skin ([5]; skin, after 24 hours, 50 mg/kg i.v.): 37.5 µg/g
- concentration of "peptide" (radioactivity) in spleen [5, 10]: 74.7 µg/g
- concentration of "peptide" (radioactivity) in spleen ([5]; after 24 hours, 50 mg/kg i.v.): 39.3 µg/g
- concentration of "peptide" (radioactivity) in testis ([5]; testis, after 10 minutes, 50 mg/kg i.v.): 85.7 µg/g
- concentration of "peptide" (radioactivity) in thymus ([5]; thymus, after 24 hours, 50 mg/kg i.v.): 43.1 µg/g
- administered radioactivity exhaled as volatiles, most likely 14C-CO2 ([5]; up to 24 hours): About 50%
- parent compound in urine ([5]; urine, HPLC, 50 mg/kg i.v.): No parent compound was detected
Molecule: Ala-Gln-[1-^14C]Gly-Val [[^14C]-AQGV]

Molecule: GAYPGAPGAYPGAPAPGV [18-meric peptide derived from the human N-terminal fragment of galectin-3]
- angiogenic (core) activity in sprouting assay [6]: have angiogenic core activities

Molecule: LAGV
- LPS-activity in vitro [3]: significantly inhibited
- systemic release of IL-6 [4]: significantly (p<0.001) prevented
- systemic release of TNF-α [4]: significantly (p<0.001) prevented

Molecule: LGGGPG
- angiogenic activities (total tube length) [6]: significantly induced angiogenic activities

Molecule: LOGA
- LPS-activity in vitro [3]: significantly inhibited

Molecule: LQAV
- LPS-activity in vitro [3]: significantly inhibited

Molecule: LQGV
- LPS-activity in vitro [3]: significantly inhibited
- T1D-onset [7]: significantly (p<0.0001) delay
- systemic release of IL-6 [4]: significantly (p<0.001) prevented
- systemic release of TNF-α [4]: significantly (p<0.001) prevented

Molecule: PGAYPG
- angiogenic activities (total tube length) [6]: significantly induced angiogenic activities
- angiogenic (core) activity in sprouting assay [6]: have angiogenic core activities

Molecule: VAPALP
- LPS-activity in vitro [3]: significantly inhibited

Molecule: VGVAPG
- angiogenic activities (total tube length) [6]: significantly induced angiogenic activities
- angiogenic (core) activity in sprouting assay [6]: core-angiogenic activities have been demonstrated

Molecule: VGVAPGVGVAPGVGVAPG [18-meric peptide derived from human elastin]
- angiogenic (core) activity in sprouting assay [6]: core-angiogenic activities have been demonstrated

Molecule: VLAALP
- LPS-activity in vitro [3]: significantly inhibited

Molecule: VLPAAP
- LPS-activity in vitro [3]: significantly inhibited

Molecule: VLPALA
- LPS-activity in vitro [3]: significantly inhibited

Molecule: VLPALP
- LPS-activity in vitro [3]: significantly inhibited
- T1D-onset [7]: significantly (p<0.0001) delay

Molecule: human C-peptide
- effect on CD4+ lymphocyte migration ([2]; 10 nM, 3 h incubation): upregulating effect
- concentration of maximal effect on endothelial cell migration and tube formation [8]: 0.5 nM
- rate of skin wound closure [9]: significantly increased

Reference: patent publication US20240398894A1, “ANGIOGENIC CONTROL, PREFERABLY COMBINED WITH GLYCAEMIC CONTROL” (BIOTEMPT B.V., priority 2021, published 2024)
